Source: patent US20250057770A1, “Monomethylfumarate Prodrug Compositions” (Alkermes Pharma Ireland Limited, priority 2015, published 2025)
“And” between values parts separate entries of the source, which are not always exact repeats. Identical values can stand only once. Counter-ions that a name gives are not always drawn.

Columns and labels:
Type in all cases: in vivo, human
[1] = Single ascending dose study (Part 1): safety and tolerability, adverse events
Protocol: (§1) A randomized, double-blind, placebo-controlled, sequential, single ascending dose study was conducted in healthy subjects to investigate the safety, tolerability and pharmacokinetics of capsules containing delayed release (DR) mini-tablets of Compound 1 from Example 2.1 (“Compound 1 DR capsules”). Up to 7 cohorts were included with 8 subjects in each cohort. In each cohort, 6 subjects received Compound 1 DR capsules and 2 subjects were treated with placebo in fasted condition. Compound 1 doses investigated were 49 mg (Cohort 1), 105 mg (Cohort 2), 210 mg (Cohort 3), 420 mg (Cohort 4), 630 mg (Cohort 5), 840 mg (Cohort 6), and 980 mg (Cohort 7) (all weights being mg of prodrug).

[2] = Phase I 2-period cross-over study (Part 2): plasma MMF pharmacokinetics; conditions: 420 mg Compound 1 DR versus 240 mg DMF
Protocol: (§2) (The DMF oral dosage form used in this study was […]®, (Biogen Idec, Inc Cambridge, MA, USA)). A total of 16 subjects were enrolled and randomized to a treatment sequence.
Each dosing period was separated by a wash-out period of 7 days.
(§3) Blood samples were collected from all subjects prior to dosing and at 0.25, 0.50, 1, 1.50, 2, 2.50, 3, 4, 6, 8, 10, 12, and 24 hours after dosing. Plasma obtained from blood samples were analyzed for Compound 1, MMF and another metabolite using validated LC-MS/MS method. The plasma concentration-time profiles were analyzed via Non-Compartmental analysis (NCA) using Phoenix WinNonLin, version 6.3.

[3] = Single ascending dose study (Part 1): plasma MMF pharmacokinetics; conditions: oral dosing, 49 to 980 mg
Protocol: as §1, §3

[4] = Phase I 2-period cross-over study (Part 2): safety and tolerability, adverse events; conditions: DMF 240 mg or Compound 1 DR 420 mg
From the text: as §2
Each dosing period was separated by a wash-out period of 7 days. […]

COC(=O)/C=C/C(=O)OCCN1C(=O)CCC1=O [Compound 1, 2-(2,5-dioxopyrrolidin-1-yl)ethyl methyl fumarate]
Subjects with Abdominal discomfort ([1]; 49 mg, N = 6): 0 n (%)
Subjects with Abdominal pain ([1]; 49 mg, N = 6): 0 n (%)
Subjects with Diarrhoea ([1]; 49 mg, N = 6): 0 n (%)
Subjects with Flatulence ([1]; 49 mg, N = 6): 0 n (%)
Subjects with Flushing ([1]; 49 mg, N = 6): 1 (16.7) n (%)
Subjects with Frequent bowel movements ([1]; 49 mg, N = 6): 1 (16.7) n (%)
Subjects with Gastrointestinal disorders (SOC) ([1]; 49 mg, N = 6): 1 (16.7) n (%)
Subjects with Nausea ([1]; 49 mg, N = 6): 0 n (%)
Subjects with Vascular disorders (SOC) ([1]; 49 mg, N = 6): 1 (16.7) n (%)
Subjects with Abdominal discomfort ([1]; 105 mg, N = 6): 0 n (%)
Subjects with Abdominal pain ([1]; 105 mg, N = 6): 0 n (%)
Subjects with Diarrhoea ([1]; 105 mg, N = 6): 0 n (%)
Subjects with Flatulence ([1]; 105 mg, N = 6): 0 n (%)
Subjects with Flushing ([1]; 105 mg, N = 6): 0 n (%)
Subjects with Frequent bowel movements ([1]; 105 mg, N = 6): 0 n (%)
Subjects with Gastrointestinal disorders (SOC) ([1]; 105 mg, N = 6): 0 n (%)
Subjects with Nausea ([1]; 105 mg, N = 6): 0 n (%)
Subjects with Vascular disorders (SOC) ([1]; 105 mg, N = 6): 0 n (%)
Subjects with Abdominal discomfort ([1]; 210 mg, N = 6): 1 (16.7) n (%)
Subjects with Abdominal pain ([1]; 210 mg, N = 6): 0 n (%)
Subjects with Diarrhoea ([1]; 210 mg, N = 6): 0 n (%)
Subjects with Flatulence ([1]; 210 mg, N = 6): 0 n (%)
Subjects with Flushing ([1]; 210 mg, N = 6): 2 (33.3) n (%)
Subjects with Frequent bowel movements ([1]; 210 mg, N = 6): 0 n (%)
Subjects with Gastrointestinal disorders (SOC) ([1]; 210 mg, N = 6): 1 (16.7) n (%)
Subjects with Nausea ([1]; 210 mg, N = 6): 0 n (%)
Subjects with Vascular disorders (SOC) ([1]; 210 mg, N = 6): 2 (33.3) n (%)
Subjects with Abdominal discomfort ([1]; 420 mg, N = 6): 0 n (%)
Subjects with Abdominal pain ([1]; 420 mg, N = 6): 0 n (%)
Subjects with Diarrhoea ([1]; 420 mg, N = 6): 0 n (%)
Subjects with Flatulence ([1]; 420 mg, N = 6): 0 n (%)
Subjects with Flushing ([1]; 420 mg, N = 6): 4 (66.7) n (%)
Subjects with Frequent bowel movements ([1]; 420 mg, N = 6): 0 n (%)
Subjects with Gastrointestinal disorders (SOC) ([1]; 420 mg, N = 6): 0 n (%)
Subjects with Nausea ([1]; 420 mg, N = 6): 0 n (%)
Subjects with Vascular disorders (SOC) ([1]; 420 mg, N = 6): 4 (66.7) n (%)
Subjects with Abdominal discomfort ([1]; 630 mg, N = 6): 0 n (%)
Subjects with Abdominal pain ([1]; 630 mg, N = 6): 0 n (%)
Subjects with Diarrhoea ([1]; 630 mg, N = 6): 1 n (%)
Subjects with Flatulence ([1]; 630 mg, N = 6): 0 n (%)
Subjects with Flushing ([1]; 630 mg, N = 6): 6 n (%)
Subjects with Frequent bowel movements ([1]; 630 mg, N = 6): 0 n (%)
Subjects with Gastrointestinal disorders (SOC) ([1]; 630 mg, N = 6): 1 n (%)
Subjects with Nausea ([1]; 630 mg, N = 6): 0 n (%)
Subjects with Vascular disorders (SOC) ([1]; 630 mg, N = 6): 6 n (%)
Subjects with Abdominal discomfort ([1]; 840 mg, N = 6): 0 n (%)
Subjects with Abdominal pain ([1]; 840 mg, N = 6): 0 n (%)
Subjects with Diarrhoea ([1]; 840 mg, N = 6): 1 (16.7) n (%)
Subjects with Flatulence ([1]; 840 mg, N = 6): 2 (33.3) n (%)
Subjects with Flushing ([1]; 840 mg, N = 6): 5 (83.3) n (%)
Subjects with Frequent bowel movements ([1]; 840 mg, N = 6): 0 n (%)
Subjects with Gastrointestinal disorders (SOC) ([1]; 840 mg, N = 6): 2 (33.3) n (%)
Subjects with Nausea ([1]; 840 mg, N = 6): 0 n (%)
Subjects with Vascular disorders (SOC) ([1]; 840 mg, N = 6): 5 (83.3) n (%)
Subjects with Abdominal discomfort ([1]; 980 mg, N = 6): 1 n (%)
Subjects with Abdominal pain ([1]; 980 mg, N = 6): 1 n (%)
Subjects with Diarrhoea ([1]; 980 mg, N = 6): 2 n (%)
Subjects with Flatulence ([1]; 980 mg, N = 6): 1 n (%)
Subjects with Flushing ([1]; 980 mg, N = 6): 6 n (%)
Subjects with Frequent bowel movements ([1]; 980 mg, N = 6): 0 n (%)
Subjects with Gastrointestinal disorders (SOC) ([1]; 980 mg, N = 6): 4 n (%)
Subjects with Nausea ([1]; 980 mg, N = 6): 2 n (%)
Subjects with Vascular disorders (SOC) ([1]; 980 mg, N = 6): 6 n (%)
tolerability during the trial ([1]; 49 to 980 mg single doses): well tolerated
Subjects with Flushing ([1]; dose levels ≥420 mg): > 50%
PK variability (% CV) compared to DMF treatment [2]: less PK variability
PK variability (% CV) compared to DMF treatment ([2]; listed as 2-(2,5-dioxopyrrolidin-1-yl)ethyl methyl fumarate): less variability
conversion to metabolite MMF in plasma [3]: rapidly converted
Subjects with Flushing ([4]; N = 12): 8 (66.7%) n (%)
Subjects with Gastrointestinal disorders (SOC) ([4]; N = 12): 1 (8.3%) n (%)

COC(=O)/C=C/C(=O)OC [DMF, Dimethyl fumarate]
mean onset of flushing [4]: 1.2 h
Subjects with Constipation ([4]; N = 12): 0 n (%)
Subjects with Diarrhoea ([4]; N = 12): 1 (8.3%) n (%) and 1 n (%)
Subjects with Eructation ([4]; N = 12): 1 n (%)
Subjects with Flatulence ([4]; N = 12): 1 n (%)
Subjects with Flushing ([4]; N = 12): 8 (66.7%) n (%) and 8 n (%)
Subjects with Gastrointestinal disorders (SOC) ([4]; N = 12): 5 (41.7%) n (%) and 5 n (%)
Subjects with Nausea ([4]; N = 12): 3 (25%) n (%) and 3 n (%)
Subjects with Retching ([4]; N = 12): 1 (8.3%) n (%) and 1 n (%)
Subjects with Vascular disorders (SOC) ([4]; N = 12): 8 n (%)
